Molecular target: T1, ORF15 (polyprenyl phosphoribofuranose synthase, PPPRS) (Citrobacter youngae, UniProt A0A2Z4BV67)
T1 construct: gene ubiA; full-length two-domain integral membrane protein (N-terminal PRP/HAD, C-terminal UbiA-type PPPRS); plasmid-expressed, membranes used as enzyme
T1 sequence (A0A2Z4BV67 1-483): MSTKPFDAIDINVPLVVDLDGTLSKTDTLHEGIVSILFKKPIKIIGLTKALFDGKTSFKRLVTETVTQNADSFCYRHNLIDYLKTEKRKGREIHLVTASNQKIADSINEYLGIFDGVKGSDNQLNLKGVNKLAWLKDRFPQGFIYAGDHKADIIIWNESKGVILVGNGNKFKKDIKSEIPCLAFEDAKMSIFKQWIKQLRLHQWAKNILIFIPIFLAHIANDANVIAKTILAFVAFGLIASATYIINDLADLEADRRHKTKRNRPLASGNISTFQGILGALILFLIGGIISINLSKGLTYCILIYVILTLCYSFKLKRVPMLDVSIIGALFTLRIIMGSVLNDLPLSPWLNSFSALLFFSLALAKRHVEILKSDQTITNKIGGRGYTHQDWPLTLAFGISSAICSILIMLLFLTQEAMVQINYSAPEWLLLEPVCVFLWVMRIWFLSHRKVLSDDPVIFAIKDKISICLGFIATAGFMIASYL
Assay: TLC, MS and NMR of product formed by membranes
Format: biochemical
Details: […] °C, […] h, expressed membranes

SMILES | TLC, MS and NMR of product formed by membranes ([…] acceptor, […] PRPP, […] MgCl2, […] HEPES pH […]) | TLC, MS and NMR of product formed by membranes ([…] donor, […] farnesylP acceptor, […] MgCl2, pH […])
CC(C)=CCC/C(C)=C/CC/C(C)=C/COP(=O)(O)O [compound 1, farnesyl-phosphate] | revealing production of a slower migrating species that was dependent on the presence of PRPP | –
O=P(O)(O)OC[C@H]1O[C@H](OP(=O)(O)OP(=O)(O)O)[C@H](O)[C@@H]1O [phosphoribosylpyrophosphate] | – | membranes, PRPP donor, and farnesylP acceptor were analyzed by thin layer chromatography (TLC)

— article PMC11127046, “Three-component systems represent a common pathway for extracytoplasmic addition of pentofuranose sugars into bacterial glycans” (Proceedings of the National Academy of Sciences of the …, 2024)
